Laboratory results reported in US20020031795A1, “Nitrocoumarins for detecting all micro-organisms” (priority 1998, published 2002).

Experiments:
Assay type in all cases: cell-based
[1] = test system: Candida albicans (ATCC 90028); assay: Fluorescence after 24 hours, serial dilutions in Trypticase Soy broth; conditions: for Fluorescence reading: 24 hours
Protocol: (§1) This experiment was performed to test 7-nitrocoumarin-3-carboxylic acid on sixteen (16) different types of microorganism, including one yeast species.
(§2) A mass of 10 mg of the indicator was dissolved in 4 ml of hot, distilled water and this solution was then added to 96 ml of Trypticase Soy broth. The resultant mixture was sterile-filtered.
[…] Each culture was then diluted 1,000-fold in Trypticase Soy broth and then serial 10-fold dilutions were made in more Trypticase Soy broth until the test aliquot contained no more microbial cells.
(§3) The resultant dilutions ranged from 10^−3 to 10^−13.
(§4) Fifty microliters of each dilution plus 50 μl of Trypticase Soy broth were added to wells of a microtiter plate with or without 7-nitrocoumarin-3-carboxylic acid.
(§5) The plates were read (T zero) and then incubated at 35° C. before being read again after 24 hours. Two different readings were made at each time point:
(§6) of the fluorescence (excitation at 365 nm and emission at 440 nm), using a Biolite F1 2001 fluorometer (Labtech International Limited), for wells containing 7-nitrocoumarin-3-carboxylic acid.

[2] = test system: Pseudomonas fluorescens (ATCC 13525); assay: as above
Protocol: as §1, §2
(§7) All the microorganisms were grown for 24 hours in Trypticase Soy broth at 35° C. Each culture was then diluted 1,000-fold in Trypticase Soy broth and then serial 10-fold dilutions were made in more Trypticase Soy broth until the test aliquot contained no more microbial cells.
as §3, §4, §5, §6

[3] = test system: Burkholderia cepacia (ATCC 25416); assay: as above
Protocol: as §1, §2, §7, §3, §4, §5, §6

[4] = test system: Brevundimonas vesicularis (ATCC 11426); assay: as above
Protocol: as §1, §2, §7, §3, §4, §5, §6

[5] = test system: Moraxella osloensis (ATCC 19976); assay: as above
Protocol: as §1, §2, §7, §3, §4, §5, §6

[6] = test system: five different species of Enterobacteriaceae; assay: Reduction by wild strains of five species of Enterobacteriaceae (summary); conditions: 0.17 mmol/l
Protocol: (§8) This experiment was designed to investigate whether or not it would be possible to detect Enterobacteriaceae other than E. coli using 7-nitrocoumarin-3-carboxylic acid. The conditions for this experiment were similar to those described for the first experiment (section A).
(§9) Five wild strains belonging to the species Citrobacter diversus, Enterobacter agglomerans, Hafnia alvei, Morganella morganii and Shigella sonnei were tested

Enterobacter agglomerans = assay: Reduction of the indicator by wild Enterobacteriaceae strain (fluorescence); conditions: 0.17 mmol/l
Protocol: (§10) The E. coli was grown for 24 hours at 35° C. on Columbia agar supplemented with sheep blood. The bacteria were then resuspended in sterile, distilled water and their density was adjusted to 0.5 on the MacFarland scale (i.e. about 10^8 cells/ml). This suspension was then diluted 100-fold in sterile Mueller-Hinton broth (i.e. to a final density of about 10^6 cells/ml).
(§11) Fifty microliters of each nitrocoumarin solution plus 50 μl of bacterial suspension were then added to the wells of a microtiter plate. The plates were incubated at 35° C. and the optical density and fluorescence of each well was read every 30 min for a total of 4 hours. Optical density (690 nm) readings were made using an Anthos 2001 spectrophotometer (Labtech International Limited), and fluorescence (excitation at 365 nm and emission at 440 nm) readings were made on a Biolite F1 2001 fluorometer (Labtech International Limited).
as §8, §9

Morganella morganii = assay: as above; conditions: 0.17 mmol/l
Protocol: as §10, §11, §8, §9

Hafnia alvei = assay: as above; conditions: 0.17 mmol/l
Protocol: as §10, §11, §8, §9

[7] = test system: sixteen different microorganisms; assay: Growth indicator test on sixteen different microorganisms (summary)
Protocol: as §1, §2, §7, §3, §4
The plates were read (T zero) and then incubated at 35° C. before being read again after 24 hours. Two different readings were made at each time point: […]
as §6
In order to check the correlation between growth and the fluorescence results, the contents of each well were seeded on Columbia agar supplemented with sheep blood.

O=C(O)c1cc2ccc([N+](=O)[O-])cc2oc1=O [7-nitrocoumarin-3-carboxylic acid]
Fluorescence reading ([1]; dilution 10^−3): 2847
Fluorescence reading ([1]; dilution 10^−4): 2609
Fluorescence reading ([1]; dilution 10^−5): 2335
Fluorescence reading ([1]; dilution 10^−6): 2041
Fluorescence reading ([1]; dilution 10^−7): 1693
Fluorescence reading ([1]; dilution 10^−8): 1745
Fluorescence reading ([1]; dilution 10^−9): 1693
Fluorescence reading ([1]; dilution 10^−10): 1751
Fluorescence reading ([1]; dilution 10^−11): 1666
Fluorescence reading ([1]; dilution 10^−12): 1702
Fluorescence reading ([1]; dilution 10^−13): 1666
Fluorescent signal compared with bacteria (in words) ([1]; RPMI medium, results not presented): comparable to that generated by the bacteria
Fluorescent signal compared with bacteria (in words) ([1]; Trypticase Soy broth): only a faint fluorescent signal
Fluorescence reading ([2]; dilution 10^−3): 8985
Fluorescence reading ([2]; dilution 10^−4): 1774
Fluorescence reading ([2]; dilution 10^−5): 1657
Fluorescence reading ([2]; dilution 10^−6): 1625
Fluorescence reading ([2]; dilution 10^−7): 1716
Fluorescence reading ([2]; dilution 10^−8): 1690
Fluorescence reading ([2]; dilution 10^−9): 1736
Fluorescence reading ([2]; dilution 10^−10): 1666
Fluorescence reading ([2]; dilution 10^−11): 1691
Fluorescence reading ([2]; dilution 10^−12): 1666
Fluorescence reading ([2]; dilution 10^−13): 1624
Fluorescence reading ([3]; dilution 10^−3): 16978
Fluorescence reading ([3]; dilution 10^−4): 16719
Fluorescence reading ([3]; dilution 10^−5): 16808
Fluorescence reading ([3]; dilution 10^−6): 15800
Fluorescence reading ([3]; dilution 10^−7): 11973
Fluorescence reading ([3]; dilution 10^−8): 1969
Fluorescence reading ([3]; dilution 10^−9): 1996
Fluorescence reading ([3]; dilution 10^−10): 1950
Fluorescence reading ([3]; dilution 10^−11): 1925
Fluorescence reading ([3]; dilution 10^−12): 1965
Fluorescence reading ([3]; dilution 10^−13): 1914
Fluorescence reading ([4]; dilution 10^−3): 2543
Fluorescence reading ([4]; dilution 10^−4): 1962
Fluorescence reading ([4]; dilution 10^−5): 1861
Fluorescence reading ([4]; dilution 10^−6): 1941
Fluorescence reading ([4]; dilution 10^−7): 1928
Fluorescence reading ([4]; dilution 10^−8): 1889
Fluorescence reading ([4]; dilution 10^−9): 1929
Fluorescence reading ([4]; dilution 10^−10): 1910
Fluorescence reading ([4]; dilution 10^−11): 1938
Fluorescence reading ([4]; dilution 10^−12): 1919
Fluorescence reading ([4]; dilution 10^−13): 1877
Fluorescence reading ([5]; dilution 10^−3): 11426
Fluorescence reading ([5]; dilution 10^−4): 9949
Fluorescence reading ([5]; dilution 10^−5): 7700
Fluorescence reading ([5]; dilution 10^−6): 5875
Fluorescence reading ([5]; dilution 10^−7): 1925
Fluorescence reading ([5]; dilution 10^−8): 1941
Fluorescence reading ([5]; dilution 10^−9): 1977
Fluorescence reading ([5]; dilution 10^−10): 2039
Fluorescence reading ([5]; dilution 10^−11): 1938
Fluorescence reading ([5]; dilution 10^−12): 1907
Fluorescence reading ([5]; dilution 10^−13): 1945
Reduction by wild strains of five Enterobacteriaceae species (in words) [6]: All the strains tested were found to be able to reduce this compound
Fluorescent signal (Enterobacter agglomerans; 0 min): 0
Fluorescent signal (Enterobacter agglomerans; 30 min): −15
Fluorescent signal (Enterobacter agglomerans; 60 min): −3
Fluorescent signal (Enterobacter agglomerans; 90 min): 9
Fluorescent signal (Enterobacter agglomerans; 120 min): 74
Fluorescent signal (Enterobacter agglomerans; 150 min): 199
Fluorescent signal (Enterobacter agglomerans; 180 min): 501
Fluorescent signal (Enterobacter agglomerans; 210 min): 1246
Fluorescent signal (Enterobacter agglomerans; 240 min): 4099
Fluorescent signal (Morganella morganii; 0 min): 0
Fluorescent signal (Morganella morganii; 30 min): −42
Fluorescent signal (Morganella morganii; 60 min): −24
Fluorescent signal (Morganella morganii; 90 min): −15
Fluorescent signal (Morganella morganii; 120 min): 31
Fluorescent signal (Morganella morganii; 150 min): 95
Fluorescent signal (Morganella morganii; 180 min): 403
Fluorescent signal (Morganella morganii; 210 min): 2170
Fluorescent signal (Morganella morganii; 240 min): 8128
Fluorescent signal (Hafnia alvei; 0 min): 0
Fluorescent signal (Hafnia alvei; 30 min): −24
Fluorescent signal (Hafnia alvei; 60 min): −30
Fluorescent signal (Hafnia alvei; 90 min): 0
Fluorescent signal (Hafnia alvei; 120 min): 40
Fluorescent signal (Hafnia alvei; 150 min): 122
Fluorescent signal (Hafnia alvei; 180 min): 260
Fluorescent signal (Hafnia alvei; 210 min): 775
Fluorescent signal (Hafnia alvei; 240 min): 2048
Correlation of fluorescence readings with microbial growth (in words) ([7]; 24 hours, Trypticase Soy broth): correlate closely with microbial growth patterns for all the species tested
Sensitivity of the assay (in words) ([7]; limiting dilution): capable of detecting a single viable cell
